Results: PubChem BioAssay (NCI)
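48-hour exposure; five concentrations; linearly interpolated endpoints. At the GI50, growth is halved. TGI: concentration producing complete growth inhibition.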

Legend:
Experiment in all cases: NCI-60 cell line screen, 48 h; in the data active means GI50 below about 0.43 µM; inactive means the rest
UACC-257 melanoma = system: UACC-257 melanoma
T-47D breast = system: T-47D breast
OVCAR-4 ovarian = system: OVCAR-4 ovarian
BT-549 breast = system: BT-549 breast
OVCAR-5 ovarian = system: OVCAR-5 ovarian
SN12C renal = system: SN12C renal
EKVX NSCLC = system: EKVX NSCLC
UO-31 renal = system: UO-31 renal
SK-MEL-28 melanoma = system: SK-MEL-28 melanoma
MDA-N = system: MDA-N
HOP-62 NSCLC = system: HOP-62 NSCLC
NCI-H23 lung = system: NCI-H23 lung
HCT-116 colon = system: HCT-116 colon
A498 renal = system: A498 renal
SF-268 CNS = system: SF-268 CNS
ACHN renal = system: ACHN renal
MALME-3M melanoma = system: MALME-3M melanoma
A549 NSCLC = system: A549 NSCLC
786-0 renal = system: 786-0 renal
RPMI-8226 leukemia = system: RPMI-8226 leukemia
SK-OV-3 ovarian = system: SK-OV-3 ovarian
CAKI-1 renal = system: CAKI-1 renal
TK-10 renal = system: TK-10 renal
HS 578T breast = system: HS 578T breast
KM12 colon = system: KM12 colon
COLO 205 colon = system: COLO 205 colon
SF-295 CNS = system: SF-295 CNS
MCF7 breast = system: MCF7 breast
HL-60(TB) leukemia = system: HL-60(TB) leukemia
OVCAR-8 ovarian = system: OVCAR-8 ovarian
RXF 393 renal = system: RXF 393 renal
MDA-MB-231 breast = system: MDA-MB-231 breast
U251 CNS = system: U251 CNS
NCI-H522 lung = system: NCI-H522 lung
HT29 colon = system: HT29 colon
NCI/ADR-RES ovarian = system: NCI/ADR-RES ovarian
HCC-2998 colon = system: HCC-2998 colon
SF-539 CNS = system: SF-539 CNS
LOX IMVI melanoma = system: LOX IMVI melanoma
DU-145 prostate = system: DU-145 prostate
MDA-MB-435 = system: MDA-MB-435
NCI-H226 lung = system: NCI-H226 lung
NCI-H460 lung = system: NCI-H460 lung
SK-MEL-2 melanoma = system: SK-MEL-2 melanoma
OVCAR-3 ovarian = system: OVCAR-3 ovarian
SR leukemia = system: SR leukemia
MOLT-4 leukemia = system: MOLT-4 leukemia
SNB-19 CNS = system: SNB-19 CNS
SK-MEL-5 melanoma = system: SK-MEL-5 melanoma
HCT-15 colon = system: HCT-15 colon
IGROV1 ovarian = system: IGROV1 ovarian
CCRF-CEM leukemia = system: CCRF-CEM leukemia
UACC-62 melanoma = system: UACC-62 melanoma
M14 melanoma = system: M14 melanoma
SW-620 colon = system: SW-620 colon
PC-3 prostate = system: PC-3 prostate
SNB-75 CNS = system: SNB-75 CNS
K-562 leukemia = system: K-562 leukemia
HOP-92 NSCLC = system: HOP-92 NSCLC

COc1cc2cc(c1Cl)N(C)C(=O)CC(OC(=O)C(C)C)C1(C)OC1C(C)C1CC(O)(NC(=O)O1)C(OC)/C=C/C=C(C)C2 (stereo unspecified)
38.6 µM: TGI (OVCAR-5 ovarian)
16.6 µM: TGI (EKVX NSCLC)
inactive: GI50 (T-47D breast) 29.1 µM | GI50 (SK-MEL-28 melanoma) 17.6 µM
30.6 µM: TGI (786-0 renal)
13.8 µM: TGI (HCT-116 colon)
62 µM: TGI (HOP-62 NSCLC)
33.1 µM: TGI (A549 NSCLC)
active: GI50 (ACHN renal) 12.6 nM
1.41 µM: TGI (MDA-N)
12.9 µM: TGI (RPMI-8226 leukemia)
19.1 µM: TGI (CAKI-1 renal)
46.7 µM: TGI (SN12C renal)
25.1 µM: TGI (MALME-3M melanoma)
15.4 µM: TGI (SF-268 CNS)
48.5 µM: TGI (NCI-H23 lung)
40.8 µM: TGI (OVCAR-4 ovarian)
18.9 µM: TGI (UO-31 renal)
36.7 µM: TGI (A498 renal)
53.4 µM: TGI (SK-OV-3 ovarian)
23.8 µM: TGI (UACC-257 melanoma)
36.4 µM: TGI (TK-10 renal)
82.9 µM: TGI (BT-549 breast)

CC1C2Cc3ccc(O)cc3C1(C)CCN2C (stereo unspecified)
> 100 µM: TGI (UACC-257 melanoma) | TGI (HS 578T breast) | TGI (KM12 colon) | TGI (COLO 205 colon) | TGI (SF-295 CNS) | TGI (T-47D breast) | TGI (OVCAR-4 ovarian) | TGI (OVCAR-5 ovarian) | TGI (MCF7 breast) | TGI (SN12C renal) | TGI (EKVX NSCLC) | TGI (UO-31 renal) | TGI (HL-60(TB) leukemia) | TGI (OVCAR-8 ovarian) | TGI (RXF 393 renal) | TGI (SK-MEL-28 melanoma) | TGI (MDA-N) | TGI (HOP-62 NSCLC) | TGI (MDA-MB-231 breast) | TGI (NCI-H23 lung) | TGI (HCT-116 colon) | TGI (A498 renal) | TGI (U251 CNS) | TGI (SF-268 CNS) | TGI (NCI-H522 lung) | TGI (HT29 colon) | TGI (NCI/ADR-RES ovarian) | TGI (HCC-2998 colon) | TGI (SF-539 CNS) | TGI (LOX IMVI melanoma) | TGI (ACHN renal) | TGI (DU-145 prostate) | TGI (MALME-3M melanoma) | TGI (MDA-MB-435) | TGI (NCI-H226 lung) | TGI (NCI-H460 lung) | TGI (A549 NSCLC) | TGI (786-0 renal) | TGI (SK-MEL-2 melanoma) | TGI (OVCAR-3 ovarian) | TGI (SR leukemia) | TGI (MOLT-4 leukemia) | TGI (SNB-19 CNS) | TGI (SK-MEL-5 melanoma) | TGI (RPMI-8226 leukemia) | TGI (HCT-15 colon) | TGI (IGROV1 ovarian) | TGI (CCRF-CEM leukemia) | TGI (UACC-62 melanoma) | TGI (SK-OV-3 ovarian) | TGI (M14 melanoma) | TGI (SW-620 colon) | TGI (PC-3 prostate) | TGI (CAKI-1 renal) | TGI (SNB-75 CNS) | TGI (TK-10 renal) | TGI (K-562 leukemia)

CCOC(=O)/C(C(=S)NC)=C(/N)N1CCCC1
> 100 µM: TGI (UACC-257 melanoma) | TGI (HS 578T breast) | TGI (KM12 colon) | TGI (COLO 205 colon) | TGI (SF-295 CNS) | TGI (T-47D breast) | TGI (OVCAR-4 ovarian) | TGI (OVCAR-5 ovarian) | TGI (SN12C renal) | TGI (EKVX NSCLC) | TGI (UO-31 renal) | TGI (HL-60(TB) leukemia) | TGI (OVCAR-8 ovarian) | TGI (RXF 393 renal) | TGI (SK-MEL-28 melanoma) | TGI (MDA-N) | TGI (HOP-62 NSCLC) | TGI (MDA-MB-231 breast) | TGI (NCI-H23 lung) | TGI (HCT-116 colon) | TGI (A498 renal) | TGI (U251 CNS) | TGI (SF-268 CNS) | TGI (NCI-H522 lung) | TGI (HT29 colon) | TGI (NCI/ADR-RES ovarian) | TGI (HCC-2998 colon) | TGI (SF-539 CNS) | TGI (LOX IMVI melanoma) | TGI (ACHN renal) | TGI (DU-145 prostate) | TGI (MALME-3M melanoma) | TGI (MDA-MB-435) | TGI (NCI-H226 lung) | TGI (HOP-92 NSCLC) | TGI (NCI-H460 lung) | TGI (A549 NSCLC) | TGI (786-0 renal) | TGI (SK-MEL-2 melanoma) | TGI (OVCAR-3 ovarian) | TGI (SR leukemia) | TGI (MOLT-4 leukemia) | TGI (SNB-19 CNS) | TGI (SK-MEL-5 melanoma) | TGI (RPMI-8226 leukemia) | TGI (HCT-15 colon) | TGI (IGROV1 ovarian) | TGI (CCRF-CEM leukemia) | TGI (UACC-62 melanoma) | TGI (SK-OV-3 ovarian) | TGI (M14 melanoma) | TGI (SW-620 colon) | TGI (PC-3 prostate) | TGI (CAKI-1 renal) | TGI (TK-10 renal) | TGI (K-562 leukemia)

Clc1cc2nc(C3CCCO3)[nH]c2cc1Cl (stereo unspecified)
58 µM: TGI (MDA-N)
> 100 µM: TGI (UACC-257 melanoma) | TGI (HS 578T breast) | TGI (KM12 colon) | TGI (COLO 205 colon) | TGI (SF-295 CNS) | TGI (T-47D breast) | TGI (OVCAR-4 ovarian) | TGI (OVCAR-5 ovarian) | TGI (MCF7 breast) | TGI (SN12C renal) | TGI (EKVX NSCLC) | TGI (HL-60(TB) leukemia) | TGI (OVCAR-8 ovarian) | TGI (RXF 393 renal) | TGI (SK-MEL-28 melanoma) | TGI (HOP-62 NSCLC) | TGI (MDA-MB-231 breast) | TGI (NCI-H23 lung) | TGI (HCT-116 colon) | TGI (U251 CNS) | TGI (SF-268 CNS) | TGI (HT29 colon) | TGI (NCI/ADR-RES ovarian) | TGI (HCC-2998 colon) | TGI (SF-539 CNS) | TGI (LOX IMVI melanoma) | TGI (ACHN renal) | TGI (MALME-3M melanoma) | TGI (MDA-MB-435) | TGI (NCI-H226 lung) | TGI (HOP-92 NSCLC) | TGI (A549 NSCLC) | TGI (786-0 renal) | TGI (SK-MEL-2 melanoma) | TGI (OVCAR-3 ovarian) | TGI (SR leukemia) | TGI (MOLT-4 leukemia) | TGI (SNB-19 CNS) | TGI (SK-MEL-5 melanoma) | TGI (RPMI-8226 leukemia) | TGI (HCT-15 colon) | TGI (IGROV1 ovarian) | TGI (CCRF-CEM leukemia) | TGI (UACC-62 melanoma) | TGI (SK-OV-3 ovarian) | TGI (M14 melanoma) | TGI (SW-620 colon) | TGI (PC-3 prostate) | TGI (SNB-75 CNS) | TGI (TK-10 renal) | TGI (K-562 leukemia)
66 µM: TGI (NCI-H522 lung)
91.3 µM: TGI (BT-549 breast)
53.9 µM: TGI (UO-31 renal)
